Consider 10 compounds from patent publication US20230255205A1, “HERBICIDAL HETEROCYCLIC DERIVATIVES” (MoA Technology Limited, priority 2020, published 2023).

Molecules are shown by their SMILES.

In the first assay the test system is Echinochloa crus-galli (ECHCG). Briefly: Pre-emergence herbicidal test, % visual injury. The format is in vivo. The note with it: 336 h, rate 1000 g/ha, 14±1 days post-emergence in untreated plots. The method, then:
(§1) Pre-emergence testing was also performed using the same test species grown in a sandy loam soil mixture, Lolium multiflorum (LOLMU), Amaranthus retroflexus (AMARE), Echinochloa crus-galli (ECHCG), Veronica persica (VERPE).
(§2) After sowing, at growth stage BBCH 00-07 (pre-emergence), the plants are sprayed with an aqueous spray solution derived from the formulation of the technical active ingredient in acetone/water (50:50) solution containing 0.5% Tween 20 (polyoxyethlyene sorbitan monolaureate, GAS RN 9005-64-5). The test compounds are applied at the required […] concentration of active ingredient in g/ha. The test plants are then grown in a glasshouse under controlled environmental conditions and watered regularly as required. After 14±1 days post-emergence in untreated plots (for the pre-emergence test), the test is evaluated by assessing the percentage damage caused to the plants in comparison with the untreated plots. The biological activities for pre-emergence testing are shown below (Table 4) in the following table as a % visual injury.
In the case of `Cc1cc(Cl)ccc1OCC(=O)Nc1nnc(C(F)(F)F)[nH]1` [Compound 35], the pest or weed control at 1000 g/ha was 80%.
Same read-out and setting: for `Cc1nnc(NC(=O)COc2ccc(F)cc2Cl)o1` [Compound 26] the value was 30%.
Same read-out and setting: the same measure for `Cn1nnnc1NC(=O)COc1ccc(F)cc1Cl` [Compound 25]: 10%.

In the next assay the test system is Veronica persica (VERPE). Briefly: Pre-emergence herbicidal test, % visual injury. The format is in vivo. The note with it: 336 h, rate 1000 g/ha, 14±1 days post-emergence in untreated plots. The method, then: as §1, §2
For the compound `Cc1cc(Cl)ccc1OCC(=O)Nc1nnc(C(F)(F)F)[nH]1` [Compound 35], the pest or weed control at 1000 g/ha is 0%.
In the case of `Cc1nnc(NC(=O)COc2ccc(F)cc2Cl)o1` [Compound 26], the pest or weed control at 1000 g/ha stood at 0%.
Still for that read-out and setting: for `Cn1nnnc1NC(=O)COc1ccc(F)cc1Cl` [Compound 25] the value was 10%.

A further assay has as its system Lolium multiflorum (LOLMU). Briefly: Pre-emergence herbicidal test, % visual injury. Format: in vivo. The note with it: 336 h, rate 1000 g/ha, 14±1 days post-emergence in untreated plots. The method, then: as §1, §2
Turning to `Cc1cc(Cl)ccc1OCC(=O)Nc1nnc(C(F)(F)F)[nH]1` [Compound 35], the pest or weed control at 1000 g/ha is 0%.
The same measure, in the same setting: for `Cc1nnc(NC(=O)COc2ccc(F)cc2Cl)o1` [Compound 26] the value was 50%; for `Cn1nnnc1NC(=O)COc1ccc(F)cc1Cl` [Compound 25], 0%.

The next assay relates to Amaranthus retroflexus (AMARE). Briefly: Pre-emergence herbicidal test, % visual injury. Format: in vivo. Conditions: rate 1000 g/ha, 14±1 days post-emergence in untreated plots. Here is the method: as §1, §2
On to `Cc1cc(Cl)ccc1OCC(=O)Nc1nnc(C(F)(F)F)[nH]1` [Compound 35], for which the “AMARE % visual Injury” value was 20%.

The subject of a further assay is Echinochloa crus-galli (ECHCG). Briefly: Post-emergence herbicidal test, % visual injury. Format: in vivo. The note with it: 336 h, rate 500 g/ha, 14±1 days post application. Here is the method: (§3) Seeds of a variety of test species are grown in a sandy loam soil mixture, Lolium multiflorum (LOLMU), Amaranthus retroflexus (AMARE), Echinochloa crus-galli (ECHCG), Veronica persica (VERPE).
(§4) After sowing, at growth stage BBCH 12-14 (post-emergence), the plants are sprayed with an aqueous spray solution derived from the formulation of the technical active ingredient in acetone/water (50:50) solution containing 0.5% Tween 20 (polyoxyethlyene sorbitan monolaureate, CAS RN 9005-64-5). The test compounds are applied at the required concentration of active ingredient in g/ha. The test plants are then grown in a glasshouse under controlled environmental conditions and watered regularly as required. After 14±1 days post application (for post-emergence test), the test is evaluated by assessing the percentage damage caused to the plants in comparison with the untreated plots. The biological activities for post-emergence testing are shown below (Table 3) as a % visual injury.
With `Cc1nnc(NC(=O)COc2ccc(F)cc2Cl)o1` [Compound 26], the pest or weed control at 500 g/ha was 90%.
Still for that read-out and setting: the same measure for `Cn1nnnc1NC(=O)COc1ccc(F)cc1Cl` [Compound 25]: 0%; for `Cc1ccc(OCC(=O)Nc2nnc(C(F)(F)F)[nH]2)c(Br)c1` [Compound 15]: 0%; for `Cn1ccc2c(OCC(=O)Nc3nc(C(F)(F)F)n[nH]3)cccc21` [Compound 91]: 0%.
The same measure, in the same setting: for `O=C(COc1nc(Cl)c(Cl)cc1Cl)Nc1nnc(C(F)(F)F)[nH]1` [Compound 37] the value was 60%; for `Cc1ccccc1OCCCC(=O)Nc1nnc(C(F)(F)F)[nH]1` [Compound 89], 0%; for `O=C(COc1cccc(C(F)(F)F)c1)Nc1nnc(C(F)(F)F)[nH]1` [Compound 4], 20%.
The same measure, in the same setting: the same measure for `CN(C)c1n[nH]c(NC(=O)COc2ccc(F)cc2Cl)n1` [Compound 24]: 70%; for `CCC(Oc1ccccc1F)C(=O)Nc1nnc(C(F)(F)F)[nH]1` (centres unmarked) [Compound 19]: 0%.

The assay is the same for the next values; noted with them: 336 h, rate 1000 g/ha, 14±1 days post application.
Compound `Cc1cc(Cl)ccc1OCC(=O)Nc1nnc(C(F)(F)F)[nH]1` [Compound 35] had a pest or weed control at 1000 g/ha of 30%.

The subject of a further assay is Veronica persica (VERPE). Briefly: Post-emergence herbicidal test, % visual injury. Format: in vivo. The note with it: 336 h, rate 500 g/ha, 14±1 days post application. The method, then:
as §3, §4
Consider `Cc1nnc(NC(=O)COc2ccc(F)cc2Cl)o1` [Compound 26], for which the pest or weed control at 500 g/ha was determined as 95%.
Still for that read-out and setting: the same measure for `Cn1nnnc1NC(=O)COc1ccc(F)cc1Cl` [Compound 25]: 70%; for `Cc1ccc(OCC(=O)Nc2nnc(C(F)(F)F)[nH]2)c(Br)c1` [Compound 15]: 50%.
On the same count and under the same terms, the same measure for `Cn1ccc2c(OCC(=O)Nc3nc(C(F)(F)F)n[nH]3)cccc21` [Compound 91]: 70%; for `O=C(COc1nc(Cl)c(Cl)cc1Cl)Nc1nnc(C(F)(F)F)[nH]1` [Compound 37]: 30%; for `Cc1ccccc1OCCCC(=O)Nc1nnc(C(F)(F)F)[nH]1` [Compound 89]: 95%.
On the same count and under the same terms, for `O=C(COc1cccc(C(F)(F)F)c1)Nc1nnc(C(F)(F)F)[nH]1` [Compound 4] the value was 80%; for `CN(C)c1n[nH]c(NC(=O)COc2ccc(F)cc2Cl)n1` [Compound 24], 50%; for `CCC(Oc1ccccc1F)C(=O)Nc1nnc(C(F)(F)F)[nH]1` (centres unmarked) [Compound 19], 20%.

The assay is the same for the next values; noted with them: 336 h, rate 1000 g/ha, 14±1 days post application.
On to `Cc1cc(Cl)ccc1OCC(=O)Nc1nnc(C(F)(F)F)[nH]1` [Compound 35], for which the pest or weed control at 1000 g/ha was found to be 60%.

A further assay relates to Lolium multiflorum (LOLMU). Briefly: Post-emergence herbicidal test, % visual injury. The note with it: 336 h, rate 500 g/ha, 14±1 days post application. The format is in vivo. Here is the method:
as §3, §4
Take `Cc1nnc(NC(=O)COc2ccc(F)cc2Cl)o1` [Compound 26]: the pest or weed control at 500 g/ha worked out at 50%.
On the same count and under the same terms, for `Cn1nnnc1NC(=O)COc1ccc(F)cc1Cl` [Compound 25] the value was 70%.
Still for that read-out and setting: for `Cc1ccc(OCC(=O)Nc2nnc(C(F)(F)F)[nH]2)c(Br)c1` [Compound 15] the value was 0%.
The compound `Cn1ccc2c(OCC(=O)Nc3nc(C(F)(F)F)n[nH]3)cccc21` [Compound 91] had a pest or weed control at 500 g/ha of 0%.
In the case of `O=C(COc1nc(Cl)c(Cl)cc1Cl)Nc1nnc(C(F)(F)F)[nH]1` [Compound 37], the pest or weed control at 500 g/ha was determined as 5%.
On the same count and under the same terms, for `Cc1ccccc1OCCCC(=O)Nc1nnc(C(F)(F)F)[nH]1` [Compound 89] the value was 0%.
Same read-out and setting: the same measure for `O=C(COc1cccc(C(F)(F)F)c1)Nc1nnc(C(F)(F)F)[nH]1` [Compound 4]: 0%; for `CN(C)c1n[nH]c(NC(=O)COc2ccc(F)cc2Cl)n1` [Compound 24]: 0%; for `CCC(Oc1ccccc1F)C(=O)Nc1nnc(C(F)(F)F)[nH]1` (centres unmarked) [Compound 19]: 0%.

Still in this assay, the particulars now being: 336 h, rate 1000 g/ha, 14±1 days post application.
Take `Cc1cc(Cl)ccc1OCC(=O)Nc1nnc(C(F)(F)F)[nH]1` [Compound 35]: the pest or weed control at 1000 g/ha turned out to be 20%.

The test system of another assay is Amaranthus retroflexus (AMARE). Briefly: Post-emergence herbicidal test, % visual injury. Format: in vivo. The note with it: 336 h, rate 500 g/ha, 14±1 days post application. The method, then:
as §3, §4
In turn, `Cc1nnc(NC(=O)COc2ccc(F)cc2Cl)o1` [Compound 26] gave a pest or weed control at 500 g/ha of 90%.
Same read-out and setting: for `Cn1nnnc1NC(=O)COc1ccc(F)cc1Cl` [Compound 25] the value was 40%.
Consider `Cc1ccc(OCC(=O)Nc2nnc(C(F)(F)F)[nH]2)c(Br)c1` [Compound 15], for which the pest or weed control at 500 g/ha is 0%.
The same measure, in the same setting: for `Cn1ccc2c(OCC(=O)Nc3nc(C(F)(F)F)n[nH]3)cccc21` [Compound 91] the value was 0%; for `O=C(COc1nc(Cl)c(Cl)cc1Cl)Nc1nnc(C(F)(F)F)[nH]1` [Compound 37], 80%; for `Cc1ccccc1OCCCC(=O)Nc1nnc(C(F)(F)F)[nH]1` [Compound 89], 40%.
`O=C(COc1cccc(C(F)(F)F)c1)Nc1nnc(C(F)(F)F)[nH]1` [Compound 4]: the pest or weed control at 500 g/ha came to 99%.
Take `CN(C)c1n[nH]c(NC(=O)COc2ccc(F)cc2Cl)n1` [Compound 24]: the pest or weed control at 500 g/ha worked out at 70%.
On the same count and under the same terms, for `CCC(Oc1ccccc1F)C(=O)Nc1nnc(C(F)(F)F)[nH]1` (centres unmarked) [Compound 19] the value was 0%.

The same assay, now with this note: 336 h, rate 1000 g/ha, 14±1 days post application.
`Cc1cc(Cl)ccc1OCC(=O)Nc1nnc(C(F)(F)F)[nH]1` [Compound 35] returned a pest or weed control at 1000 g/ha of 80%.
